In patent publication US12528786B2, “Plasma kallikrein inhibitors” (Merck Sharp & Dohme LLC, priority 2020, dated 2026):

Molecular target: T1, Human plasma kallikrein (Homo sapiens, UniProt P03952)
T1 construct: yields a heavy chain (371 amino acids) and a light chain (248 amino acids); purchased Enzyme Research Laboratories
Assay: Kallikrein Assay (fluorogenic substrate hydrolysis, AFC release)
Assay type: biochemical
Conditions: purified Human plasma kallikrein 0.5 nM; substrate Acetyl-K—P—R-AFC 100 mM; 50 mM HEPES pH 7.4
Method in brief: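 Purified human plasma kallikrein (0.5 nM final) with Acetyl-K-P-R-AFC substrate (final ≤0.2 Km) in 50 mM HEPES pH 7.4, 150 mM NaCl, 5 mM CaCl2, 0.1% PEG 8000, after enzyme–inhibitor equilibration; room temperature or 37° C. AFC fluorescence (405 Ex/510 Em nm) under linear conditions; IC50 by four-parameter fit, Ki via Cheng-Prusoff.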

T1 sequence (P03952 391-638 limits assumed): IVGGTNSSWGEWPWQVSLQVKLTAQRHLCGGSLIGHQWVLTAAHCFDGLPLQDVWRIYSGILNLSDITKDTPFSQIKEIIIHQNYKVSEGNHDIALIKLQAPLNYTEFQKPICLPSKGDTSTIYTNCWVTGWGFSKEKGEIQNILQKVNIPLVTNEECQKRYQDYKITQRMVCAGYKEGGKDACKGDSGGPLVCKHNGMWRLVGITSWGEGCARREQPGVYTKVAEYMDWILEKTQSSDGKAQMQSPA
T1 sequence (P03952 20-390 partner limits assumed): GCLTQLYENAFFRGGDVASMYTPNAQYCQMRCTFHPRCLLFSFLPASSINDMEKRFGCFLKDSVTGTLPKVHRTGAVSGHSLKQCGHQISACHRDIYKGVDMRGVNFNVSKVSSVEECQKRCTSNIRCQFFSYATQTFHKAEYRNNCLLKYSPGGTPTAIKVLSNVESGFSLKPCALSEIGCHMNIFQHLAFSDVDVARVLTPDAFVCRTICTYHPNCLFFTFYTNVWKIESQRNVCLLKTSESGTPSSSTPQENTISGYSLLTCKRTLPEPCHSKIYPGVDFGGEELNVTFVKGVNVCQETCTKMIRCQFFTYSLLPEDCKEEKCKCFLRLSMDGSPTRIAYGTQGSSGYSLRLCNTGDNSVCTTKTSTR

Row | IC50 | Compound
1 | 1.1 nM | COc1cc(N2C[C@H]3C[C@H]3C2=O)ncc1C(C)n1cc(C(=O)N[C@H]2C[C@@H](c3cc(Cl)ccc3C#N)C2)nn1 (single isomer, unassigned) [Example 89, N-((cis)-3-(5-chloro-2-cyanophenyl)cyclobutyl)-1-((S or R)-1-(4-methoxy-6-((1R,5S)-2-oxo-3-azabicyclo[3.1.0]hexan-3-yl)pyridin-3-yl)ethyl)-1H-1,2,3-triazole-4-carboxamide]
2 | 2.1 nM | CC(c1cnc(N2C[C@H]3C[C@H]3C2=O)c(F)c1)n1cc(C(=O)N[C@H]2C[C@@H](c3cc(Cl)ccc3C#N)C2)nn1 (single isomer, unassigned) [Example 103, N-((cis)-3-(5-chloro-2-cyanophenyl)cyclobutyl)-1-((R or S)-1-(5-fluoro-6-((1R,5S)-2-oxo-3-azabicyclo[3.1.0]hexan-3-yl)pyridin-3-yl)ethyl)-1H-1,2,3-triazole-4-carboxamide]
3 | 0.2 nM | Cc1c(C(C)n2cc(C(=O)N[C@H]3C[C@@H](c4cc(Cl)ccc4C#N)C3)cn2)cnc(N2C[C@H]3C[C@H]3C2=O)c1F (single isomer, unassigned) [Example 28, N-((cis)-3-(5-chloro-2-cyanophenyl)cyclobutyl)-1-((R or S)-1-(5-fluoro-4-methyl-6-((1R,5S)-2-oxo-3-azabicyclo[3.1.0]hexan-3-yl)pyridin-3-yl)ethyl)-1H-pyrazole-4-carboxamide]
4 | 27.5 nM | Cc1ccc(C#N)c([C@H]2C[C@@H](NC(=O)c3cn(C(C)c4cnc(N5C[C@H]6C[C@H]6C5=O)c(C)c4C)nn3)C2)n1 (single isomer, unassigned) [Example 98, N-((cis)-3-(3-cyano-6-methylpyridin-2-yl)cyclobutyl)-1-((R or S)-1-(4,5-dimethyl-6-((1R,5S)-2-oxo-3-azabicyclo[3.1.0]hexan-3-yl)pyridin-3-yl)ethyl)-1H-1,2,3-triazole-4-carboxamide]
5 | 15.7 nM | Cc1cc(N2C[C@H]3C[C@H]3C2=O)ncc1C(C)n1cc(C(=O)N[C@H]2C[C@@](F)(c3cc(Cl)ccc3C#N)C2)nn1 (single isomer, unassigned) [Example 76, N-(cis)-3-(5-chloro-2-cyanophenyl)-3-fluorocyclobutyl)-1-((S or R)-1-(4-methyl-6-((1R,5S)-2-oxo-3-azabicyclo[3.1.0]hexan-3-yl)pyridin-3-yl)ethyl)-1H-1,2,3-triazole-4-carboxamide]
6 | 0.2 nM | Cc1cc(N2C[C@H]3C[C@H]3C2=O)ncc1C(C)n1cc(C(=O)N[C@H]2C[C@@](F)(c3cc(Cl)ccc3C#N)C2)nn1 (single isomer, unassigned) [Example 75, N-(cis)-3-(5-chloro-2-cyanophenyl)-3-fluorocyclobutyl)-1-((R or S)-1-(4-methyl-6-((1R,5S)-2-oxo-3-azabicyclo[3.1.0]hexan-3-yl)pyridin-3-yl)ethyl)-1H-1,2,3-triazole-4-carboxamide]
7 | 2.2 nM | COc1cc(C(C)n2cc(C(=O)N[C@H]3C[C@@](C)(c4cc(Cl)ccc4C#N)C3)nn2)cnc1N1C[C@H]2C[C@H]2C1=O (single isomer, unassigned) [Example 106, N-((cis)-3-(5-chloro-2-cyanophenyl)-3-methylcyclobutyl)-1-((S or R)-1-(5-methoxy-6-((1R,5S)-2-oxo-3-azabicyclo[3.1.0]hexan-3-yl)pyridin-3-yl)ethyl)-1H-1,2,3-triazole-4-carboxamide]
8 | 5.6 nM | Cc1cc(N2C[C@H]3C[C@H]3C2=O)ncc1C(C)n1cc(C(=O)NC2CC(c3cc(Cl)ccc3C#N)C2)c(C(C)O)n1 (single isomer, unassigned) [Example 171]
9 | 2.6 nM | Cc1nn(C(C)c2cnc(N3C[C@H]4C[C@H]4C3=O)nc2)cc1C(=O)N[C@H]1C[C@@H](c2cc(Cl)ccc2C#N)C1 (single isomer, unassigned) [Example 15, N-((cis)-3-(5-chloro-2-cyanophenyl)cyclobutyl)-3-methyl-1-((R or S)-1-(2-((1R,5S)-2-oxo-3-azabicyclo[3.1.0]hexan-3-yl)pyrimidin-5-yl)ethyl)-1H-pyrazole-4-carboxamide]
10 | 15.9 nM | Cc1cc(N2C[C@H]3C[C@H]3C2=O)ncc1C(C)n1cc(C(=O)N[C@H]2C[C@@](C)(c3cc(Cl)ccc3C#N)C2)nn1 (single isomer, unassigned) [Example 64, N-((cis)-3-(5-chloro-2-cyanophenyl)-3-methylcyclobutyl)-1-((R or S)-1-(4-methyl-6-((1R,5S)-2-oxo-3-azabicyclo[3.1.0]hexan-3-yl)pyridin-3-yl)ethyl)-1H-1,2,3-triazole-4-carboxamide]
11 | 1.6 nM | Cc1c(C(C)n2cc(C(=O)N[C@H]3C[C@@H](c4cc(Cl)ccc4C#N)C3)cn2)cnc(N2C[C@H]3C[C@H]3C2=O)c1F (single isomer, unassigned) [Example 29, N-((cis)-3-(5-chloro-2-cyanophenyl)cyclobutyl)-1-((S or R)-1-(5-fluoro-4-methyl-6-((1R,5S)-2-oxo-3-azabicyclo[3.1.0]hexan-3-yl)pyridin-3-yl)ethyl)-1H-pyrazole-4-carboxamide]
12 | 2710 nM | Cc1cc(N2C[C@H]3C[C@H]3C2=O)ncc1C(C)n1cc(C(=O)N[C@@H]2CC[C@H](c3cc(Cl)ccc3C#N)C2)nn1 (single isomer, unassigned) [Example 62, N-((1R,3S)-3-(5-chloro-2-cyanophenyl)cyclopentyl)-1-((R or S)-1-(4-methyl-6-((1R,5S)-2-oxo-3-azabicyclo[3.1.0]hexan-3-yl)pyridin-3-yl)ethyl)-1H-1,2,3-triazole-4-carboxamide]
13 | 839 nM | Cc1c(C(C)n2cc(C(=O)NC3CC(c4cccc(Cl)c4)C3O)nn2)nnc(N2C[C@H]3C[C@H]3C2=O)c1C (single isomer, unassigned) [Example 129, N-((1R,2R,3R or 1S,2S,3S))-3-(3-chlorophenyl)-2-hydroxycyclobutyl)-1-((R or S)-1-(4,5-dimethyl-6-((1R,5S)-2-oxo-3-azabicyclo[3.1.0]hexan-3-yl)pyridazin-3-yl)ethyl)-1H-1,2,3-triazole-4-carboxamide]
14 | 107 nM | Cc1cc(N2C[C@H]3C[C@H]3C2=O)ncc1C(C)n1cc(C(=O)N[C@H]2C[C@@H](c3cc(Cl)ccn3)C2)nn1 (single isomer, unassigned) [Example 73, N-((cis)-3-(4-chloropyridin-2-yl)cyclobutyl)-1-((R or S)-1-(4-methyl-6-((1R,5S)-2-oxo-3-azabicyclo[3.1.0]hexan-3-yl)pyridin-3-yl)ethyl)-1H-1,2,3-triazole-4-carboxamide]
15 | 41.3 nM | Cc1c(C(C)n2cc(C(=O)NC3CC(c4cccc(Cl)c4)C3O)nn2)cnc(N2C[C@H]3C[C@H]3C2=O)c1F (single isomer, unassigned) [Example 123, N-((1R,2R,3R or 1S,2S,3S)-3-(3-chlorophenyl)-2-hydroxycyclobutyl)-1-((R or S)-1-(5-fluoro-4-methyl-6-((1R,5S)-2-oxo-3-azabicyclo[3.1.0]hexan-3-yl)pyridin-3-yl)ethyl)-1H-1,2,3-triazole-4-carboxamide]
16 | 10.6 nM | N#Cc1ccc(Cl)cc1[C@H]1C[C@@H](NC(=O)c2cnn(Cc3cnc(N4C[C@H]5C[C@H]5C4=O)nc3)c2)C1 [Example 2, N-((cis)-3-(5-chloro-2-cyanophenyl)cyclobutyl)-1-((2-((1R,5S)-2-oxo-3-azabicyclo[3.1.0]hexan-3-yl)pyrimidin-5-yl)methyl)-1H-pyrazole-4-carboxamide]
